From patent publication US20110039848A1, “FIVE-MEMBERED RING COMPOUND” (priority 2008, published 2011)

How the values were obtained:
rat lung membrane SMBS = test: Receptor-binding assessment test of compounds using rat lung membranes ([125I]-iodocyanopindolol ligand binding assay); details: ratio of inhibiting specific binding of [125I]-iodocyanopindolol to rat lung membrane SMBS; test compound 1 μM
Method: Receptor-Binding Assessment Test of Compounds Using Rat Lung Membranes
The assessment test was carried out according to the method of Sugasawa, T. et al., J. Biol. Chem., 272, 21244-21252 (1997).
Preparation of Rat Lung Membranes
Lung taken out from SD male rat (7-week old under test, Charles River Laboratories Japan, Inc.) was removed trachea and blood vessels to shred and washed with iced tris-saline buffer (10 mM tris hydrochloric acid-154 mM sodium chloride, pH7.4). The resultant was homogenized by Hiscotron with ice-cold tris-saline buffer containing a homogenization buffer (1 mM ethylenediaminetetraacetic acid (EDTA), 1 mM 4-(2-aminoethyl)benzenesulfonyl fluoride (AEBSF), 5 μg/ml aprotinin, 5 μg/ml leupeptine) (maximum rate: 1 minute). The supernatant after low-speed centrifugation (1500×g, 20 minutes, 4° C.) was ultracentrifuged (100000×g, 20 minutes, 4° C.), and the pellet was suspended in tris-saline buffer to store at −80° C. The protein concentrations were determined by Bio-Rad Protein Assay Kit using bovine serum albumin (BSA) as a standard.
To each well in protein-nonabsorptive round-bottom 96-well assay plate (commercially available from Iwaki Glass Co., Ltd.) were added tris-saline buffer (200 μl) containing 1 nM [^125I]-iodocyanopindolol (commercially available from Amersham plc), 10 μM serotonine, 20 μm dl-propranolol, 10 μM phentolamine, 1.1 mM ascorbic acid and 100 μg lung membrane, and the mixture was pipetted to combine and then incubated at 37° C. for 30 minutes. The test compounds were dissolved in 100% dimethyl sulfoxide solution, and thereto was added 2 μl (final DMSO concentration: 1%). In order to calculate nonspecific binding amounts, to the mixture was added L-threo-3-(3,4-dihydroxyphenyl)-N-[3-(4-fluorophenyl)propyl]serine pyrrolidine amide at 100 μM of the final concentration as an alternative to the test compounds. During this time, 100 μl of 0.3% polyethyleneimine (PEI)/tris-saline buffer was added to MultiScreen plate (96-well B glass fiber, Millipore Cat. No. MAFB NOB10), and incubated for over 30 minutes. The resultant was filtered with aspiration (aspiration by the addition of 200 μl iced tris-saline buffer) to wash, and the reaction solutions on 96-well assay plate were filtered with aspiration to wash four times on MultiScreen plate. B glass fiber filter paper at the bottom of MultiScreen plate was punched out, and γ-ray doses of [^125I]-iodocyanopindolol trapped on the filter paper were determined as binding amounts. The binding amounts in the presence of DMSO (final concentration: 1%) were total binding amounts, and the binding amounts in the presence of 100 μM L-threo-3-(3,4-dihydroxyphenyl)-N-[3-(4-fluorophenyl)propyl]serine pyrrolidine amide were nonspecific binding amounts. The values subtracted the nonspecific binding amounts from the total binding amounts were the specific binding amounts. The binding activity of a compound was calculated according to the following formula, which was shown in the ratio of inhibiting the specific binding of [^125I]-iodocyanopindolol to rat lung membrane SMBS by the test compound.

[1] = test system: Corticosterone generation; test: Assessment test of steroid hormone synthesis inhibition (Corticosterone generation in rat adrenal gland cells stimulated with cAMP); type: cell-based; details: inhibition rate of 10 μM test article to Corticosterone generation, 2 hours with cAMP
Method: Assessment Test of Steroid Hormone Synthesis Inhibition
Control examples 1 to 4: Control example 1 was Example 350 of Patent Document 2. Control examples 2 to 4 were synthesized according to Patent Document 2.
Adrenal glands were taken out from rats, and removed excess connective tissues, adiposes and membranes in D-MEM. The adrenal glands were transferred to polytubes, and quickly segmentalized with scissors. Thereto was added D-MEM containing 1 mg/mL collagenase and […] DNase I, and then the mixture was shaken at 37° C. for 10 minutes in 80 times/minute. Then, the mixture was pipetted by 1 mL truncated pipette tip, and shaken again under the same condition. After 10 minutes, the mixture was pipetted again by 1 mL pipette tip, and the cell suspension was filtered through metal mesh. The filtrate was centrifuged at 4° C. for 5 minutes in 500 g. The supernatant was removed, and thereto was added a mixed solution of 0.16 M NH4Cl and 0.17 M Tris-HCl in 3 mL. The mixture was let stand on ice for 5 minutes, and then centrifuged under the same condition. Then, the supernatant was removed and then thereto was added D-MEM. The cell suspension was prepared and centrifuged under the same condition. Again, the supernatant was removed and then thereto was added D-MEM to give a cell suspension. The cell suspension was filtered by Cell Strainer (BD Falcon®). The filtrate was centrifuged under the same condition. After the completion of the centrifugation, the supernatant was removed, and thereto was added D-MEM containing 1% Penicillin Streptomycin Mixed Solution and 10% FBS. The mixture was seeded in Multiple well plate for adhesive cell culture, 96 wells (IWAKI) in 10000 cells/well, and incubated at 37° C. overnight in CO2 incubator.
Test article concentrations were prepared in DMSO to 2000 μM, and D-MEM containing 20 μM test article in D-MEM was prepared.
Cell-seeded plate was incubated overnight, and then the medium was removed and thereto was added D-MEM containing 20 μM test article in 50 μL/well. Then, to the mixture was promptly added D-MEM containing 20 μM cAMP in 50 μL/well so that the final concentration of the test article was 10 μM. After the addition of 2 types of D-MEM, the mixture was incubated at 37° C. for 2 hours in CO2 incubator. After 2 hours, the supernatant (50 μL) of the medium was collected. For cells, the cell toxicity of the test article was assessed according to a conventional method using Cell Titer-Glo® (Promega). For the collected supernatant, the Corticosterone concentration in the supernatant was determined according to a conventional method using Corticosterone EIA kit (Cayman).
The inhibition rate of 10 μM test article to Corticosterone generation was calculated according to the following formula confirming that the cell toxicity by the test article was not recognized.

[2] = test system: Guinea Pig Late Asthma Model; test: Assessment of compounds in guinea pig late asthma model; type: in vivo; details: 3 mg/kg orally one hour before antigen challenge
Method: Assessment of Compounds in Guinea Pig Late Asthma Model
The assessment was carried out using a compound obtained in Example 1.
Hartley male guinea pigs (commercially available from Japan SLC, Inc.) were pre-bred about 1 week after arrival, and then exposed by inhalation to 2% (w/v) ovalbumin (OA) saline in a plastic box (4 guinea pigs/box) for 5 minutes using a ultrasonic nebulizer (OMRON NE-U12, condition: maximum nebulizing amounts, maximum air volume), and sensitized (day 0). The same operation was carried out on day 7. On day 14 or 15, each guinea pig was administered 2% OA by inhalation for 5 minutes to initiate a response (challenge). […]
A determination and analysis of respiratory function were carried out according to the method of Penny A. Hutson et al. Am Rev Respir Dis 1988 137, 548-557. The respiratory function was determined before the antigen challenge (before drug administration) and 5 minutes and 1, 2, 3, 4, 5, 6, 7 and 8 hours after the antigen challenge, and wave profiles were imported using MacLab Chart v3.4 (AD Instruments) and analyzed later. […] The sRaw/TV values subtracting the former values were plotted against measured times, and each area under the curve (AUC4-8hr) of each animal was calculated to compare each other in the range of 4 to 8 hours after the antigen challenge. […]

CNC(=O)NCCn1c(-c2ccc(N3CCOCC3)nn2)cs/c1=N\c1cccc(F)c1 [Example 1, N-{2-[(2Z)-2-[(3-Fluorophenyl)imino]-3-[6-(morpholin-4-yl)pyridazinyl]-1,3-thiazol-3(2H)-yl]ethyl}-N′-methylurea]
Binding Activity (%) (1 μM) (rat lung membrane SMBS): 103% | inhibition at 10 µM [1]: -2% | AUC4-8 hr ((sRaw/TV) · h) ([2]; OA-sensitized Hartley male guinea pigs, 4 to 8 hours after challenge): 0.411 (sRaw/TV) · h | Improvement Rate (%) ([2]; versus control group (0.5% MC), AUC4-8hr, p<0.01 Dunnett's test): 47%

CNC(=O)NCCn1c(-c2ccc(N3CCOCC3)nn2)cs/c1=N\c1ccccc1F [Example 2]
Binding Activity (%) (1 μM) (rat lung membrane SMBS): 75% | inhibition at 10 µM [1]: -8%

CCNC(=O)NCCn1c(-c2ccc(N3CCOCC3)nn2)cs/c1=N\c1cccc(F)c1 [Example 5]
Binding Activity (%) (1 μM) (rat lung membrane SMBS): 83% | inhibition at 10 µM [1]: -28%

CCNC(=O)NCCn1c(-c2ccc(N3CCOCC3)nn2)cs/c1=N\c1ccc(F)cc1 [Example 7]
Binding Activity (%) (1 μM) (rat lung membrane SMBS): 82% | inhibition at 10 µM [1]: 15%

CNC(=O)NCCn1c(-c2ccc(N3CCOCC3)nn2)cs/c1=N\c1ccccc1Cl [Example 8]
Binding Activity (%) (1 μM) (rat lung membrane SMBS): 93% | inhibition at 10 µM [1]: -12%

CCNC(=O)NCCn1c(-c2ccc(N3CCOCC3)nn2)cs/c1=N\c1ccc(Cl)cc1 [Example 11]
Binding Activity (%) (1 μM) (rat lung membrane SMBS): 88% | inhibition at 10 µM [1]: -8%

CNC(=O)NCCn1c(-c2ccc(N3CCOCC3)nn2)cs/c1=N\c1cncc(C(F)(F)F)c1 [Example 15]
Binding Activity (%) (1 μM) (rat lung membrane SMBS): 89% | inhibition at 10 µM [1]: 11%
